Experimental data taken from US8618178B2, “Method and substances for treating T-cell mediated autoimmune diseases” (Eberhard-Karls-Universitaet Tuebingen Universitaetsklinikum, priority 2006, dated 2013).
Entries after “also recorded” stand apart in the source; their conditions may differ. Counter-ions that a name gives are not always drawn.

Assays:
[1] = test system: BMDC; assay: Measurement of reactive oxygen species (ROS) in DC with dichlorofluorescein, flow cytometry; format: cell-based, mouse; settings: dichlorofluorescein, flow cytometry
Experimental: For the measurement of reactive oxygen species (ROS) in DC and APC, the fluorescent dye 2′,7′ dichlorofluorescein (H2 DCFDA, Molecular Probes, Eugene, USA) was used. 5×10^5 DC were preincubated in 1 ml of RPMI medium (without mercaptoethanol) for 60 mins at 37° C. in the incubator with 1% DMSO or 10 μg/ml DMF+/−NAC (1 mM) or GSX (1 mM). After this preincubation, 1 μM/ml H2 DCFDA was added and the cells incubated for a further 30 mins at 37° C. Within one hour, the fluorescence produced was detected using flow cytometry (FL1).
(§1) As antigen presenting cells (APC), T cell depleted spleen cells from syngenic mice were used. Dendritic cells (DC) which were obtained from bone marrow (BMDC) and cultured with GM-CSF were used for the relevant experiments on day 7 of culturing. For the experiment, in each case an equal number of APC were cultured either with the medium alone, with L-BSO (C8H18N2O3S, 0.5 mM), dimethyl sulfoxide DMSO(C2H6OS), dimethyl fumarate DMF (C6H8O4, dissolved in DMSO, 70 μM), or calcium monomethyl fumarate (MMF; CaC10H10O8, 200 μM). All substances except for MMF (Fumapharm) were purchased from Sigma-Aldrich. At the respective stated times (see below) the cells were either analyzed directly for their GSH content, used for T cell stimulation or stimulated for IL-2 production with Escherichia coli lipopolysaccharides 055.B5 (Sigma-Aldrich) or CpG-DNA 1668 (MWG Biotech) and IL-4 (Stratmann). In order to raise the GSH level again, 1 mM GSH-OEt (C12H21N3O6S; Sigma-Aldrich) or 1 mM NAC (Sigma-Aldrich) was added.
For testing the potential of pharmaceutical substances to induce the ROS, the following procedure was developed: for the measurement of reactive oxygen species (ROS) in cells, the fluorescent dye 2′,7′ dichlorofluorescein (H2 DCFDA) is used. The absorption spectrum of the substance is 492-495 nm and the emission spectrum lies in the range between 517-527 nm. On induction of cell stress, e.g., by the administration of ROS-causing reagents, oxidation of the H2 DCFDA to DCFDA+H2 occurs. The fluorescence arising as a result can be detected using flow cytometry (FL1).

[2] = test system: IL-12; assay: IL-12 production by DC, ELISA of culture supernatants; format: cell-based, mouse; settings: after stimulation with LPS
Experimental: IL-4, IL-10, IL-12 and interferon-γ were determined using the ELISA (enzyme linked immunosorbent assay) set or with the use of individual components from BD BioSciences. IL-23 in the supernatant was determined using the ELISA set (eBioscience). For intracytoplasmic cytokine analyses, the T cells were restimulated with PMA/ionomycin or with APC and peptide in the presence of brefeldin A, then fixed and permeabilized and stained. For the surface staining, anti-CD4 or KJ1-26 antibodies were used; the cytokine antibodies (PE labeled) were all obtained from BD Pharmingen.
as §1, with “used for T cell stimulation or stimulated for IL-2 production with Escherichia coli lipopolysaccharides” left out

[3] = test system: experimental autoimmune encephalomyelitis (EAE); assay: EAE after transfer of in vitro generated PLP-specific T cells into naive SJL mice; format: in vivo; settings: 10^7 lymphocytes injected into naive SJL mice
Experimental: Spleen and lymph node CD4^+ T cells were stimulated with PLP (proteolipid protein) peptide 139-151 (10 μg/ml) and stimulated for four days with irradiated SJL-APC in the presence or absence of L-BSO (0.5 mM, Sigma), expanded for three to four days and then restimulated for cytokine production (proteolipid protein is the commonest myelin protein in the central nervous system and plays an important part as an autoantigen in the onset of multiple sclerosis). Next, 10^7 sham (control) or L-BSO treated T cells were injected intraperitoneally into naive SJL mice and the EAE developing as a result was observed. […] Half of the group was fed daily for 14 days with DMF 0.3 mg/ml (Fluka) or L-BSO 0.15 mg/ml in the drinking water. For the cytokine analysis of PLP-specific T cells, the draining lymph nodes of the SJL mice were removed 6 days after the immunization and CD4^+ T cells antigen-specifically analyzed (ELISPOT). For this, ELISPOT plates (Millipore Corporation) were coated with anti-IFN-γ or anti-IL-4 antibodies overnight at 4° C., blocked after 12 hrs with PBS/10% FCS and, after the solution had been poured off, the isolated T lymphocytes were incubated with APC and medium alone or in the presence of PLP peptide. After the incubation time, the cells were poured off, and the plates washed with PBS/Tween and incubated with biotin-conjugated secondary antibodies. After further washing procedures and incubation with streptavidin-alkaline phosphatase (Boehringer), the plates were incubated with developer solution. After washing with H2O, the number of spots was determined in the ELISPOT reader (Biosys).
Since the induction of the TH2 phenotype could adversely affect the ability of the CD4^+ T cells to induce autoimmune diseases in immunocompetent mice, it was concluded that GSH^lowIL12^−DC2 could weaken the ability of autoreactive CD4^+ T cells to induce the disease. For the next experiments, lymphocytes from SJL mice were stimulated twice with PLP peptide, either in the presence or absence of L-BSO, DMF or MMF. […]

| Compound | intracellular ROS in DC [1] | IL-12 production by DC [2] | ability of T cells generated in the presence of the substance to induce EAE [3] |
| --- | --- | --- | --- |
| COC(=O)/C=C/C(=O)OC [DMF, dimethyl fumarate] | rise in ROS | strong suppression of IL-12 production; also recorded: markedly less; also recorded: markedly decreased capacity to produce IL-12 | not able to trigger severe encephalomyelitis |
| CCCCS(=N)(=O)CCC(N)C(=O)O [L-BSO, L-buthionine sulfoximine] | rise in intracellular ROS | strong suppression of IL-12 production; also recorded: markedly decreased capacity to produce IL-12 | scarcely still capable of inducing EAE in vivo |
| COC(=O)/C=C/C(=O)[O-].[Ca+] [MMF, calcium monomethyl fumarate] | induces ROS | strong suppression of IL-12 production; also recorded: markedly decreased capacity to produce IL-12 | not able to trigger severe encephalomyelitis |
